Patent US11820984B2, “Double-helix oligonucleotide construct comprising double-stranded miRNA and use thereof” (BIONEER CORPORATION, priority 2018, dated 2023)

Tests used:
PC9 cell line = assay: relative cell viability (CellTiter-Glo), erlotinib-sensitive line; format: cell-based; details: PC9, 96 hours
Procedure: (§1) After 96 hours of additional culture, the relative viability of the cells was measured. These cell lines were used because they have genetic characteristics and drug resistance as follows. […] On the other hand, PC9/GR and PC9/ER contain delE764-A750 mutation, like PC9, and have T790M mutation. […] H1975 has L858R and T790M mutations, H596 has overexpressed EGFR, and H1650 has delE764-A750 mutation. […] The cell viability was measured using the CellTiter-Glo used in Example 1.

[1] = tested on: PC9/GR, PC9/ER, H1975, H596 and H1650 cell lines having resistance to erlotinib; assay: relative cell viability (CellTiter-Glo), erlotinib-resistant lines; format: cell-based; details: cell lines having resistance to erlotinib (EGFR T790M etc.), 96 hours
Procedure: as §1, with “measured.” for “measured. These cell lines were used because they have genetic characteristics and drug resistance as follows.”

EGFR mRNA = assay: RT-qPCR relative expression level of EGFR mRNA; format: cell-based; details: PC9, PC9/ER, H1975 and H596, versus negative control
3′ UTR of EGFR mRNA = assay: luciferase assay with EGFR 3′ UTR firefly luciferase vector in HEK cells; format: cell-based, human
Text: Since miRNA inhibits protein production from target mRNA by binding to the 3′ UTR (untranslated region) of the target mRNA, luciferase assay is generally used as a method of directly measuring the relationship between miRNA and the target mRNA. Using the TargetScan software, a 3′ UTR sequence comprising a miRNA binding sequence was predicted. The predicted 3′ UTR sequence was cloned into the 3′ UTR of firefly luciferase by a gene cloning technique. The constructed vector and the miRNA of interest were co-transfected into human embryonic kidney (HEK) cells, and the luciferase expression level of the vector was measured. […] At this time, in order to correct the transfection efficiency, Renilla luciferase was also transfected to correct the measurement value. After co-transfection of the miRNA, firefly luciferase and Renilla luciferase, the cells were cultured for 48 hours, and then the luciferase activity was measured using a luminometer.

[2] = tested on: lung cancer cell lines H2009, H596, H1650, PC9, PC9/GR, H1975, HCC827, and A549; assay: miRNA library screening, inhibition of proliferation (CellTiter-Glo); format: cell-based; details: 40 nM miRNA with RNAiMax, 96 hours, eight lung cancer cell lines
Procedure: Using the same miRNA library used in Korean Patent Application No. 10-2016-0022462, an experiment was performed to screen miRNAs that induce apoptosis of lung cancer cell lines. The lung cancer cell lines used in the experiment are as follows: H2009, H596, H1650, PC9, PC9/GR, H1975, HCC827, and A549 (purchased from the ATCC or the Korean Cell Line Bank). Each of the cell lines was seeded into a 96-well plate and treated with 40 nM of each miRNA together with the transfection reagent RNAiMax (Invitrogen), and the miRNA was delivered into the cells. After 96 hours of additional culture, the relative growth of the cells was measured using CellTiter-Glo reagent (Promega) (FIGS. 1 to 4).

[3] = tested on: proteins involved in the EGFR signaling pathway; assay: Western blot analysis of proteins involved in the EGFR signaling pathway; format: cell-based
Text: It is known that the EGFR signaling pathway in the lung cancer cell lines used in the Examples is activated due to the presence of mutation in the EGFR protein and activation of the EGFR signaling pathway plays an important role in the survival of the cell lines.

[4] = tested on: PC9 and PC9/ER cell lines; assay: apoptosis analysis by annexin V / propidium iodide flow cytometry (FACS); format: cell-based; details: RNAiMax transfection, 48 hours, versus miRNA control
Procedure: After 48 hours of additional culture, the cells were treated with FITC fluorescent dye-labeled annexin V and propidium iodide (PI) and analyzed by flow cytometry (FACS).

[5] = Western blot, versus control group

## C#Cc1cccc(Nc2ncnc3cc(OCCOC)c(OCCOC)cc23)c1 [erlotinib]
PC9 cell line
  concentration at which cells could be killed: 0.1 µM
[1]
  concentration at which apoptosis of the cells could be induced: 10 µM

## miR-544a: double-stranded miRNA consisting of SEQ ID NO: 1 (5'-AUUCUGCAUUUUUAGCAAGUUC-3') and SEQ ID NO: 2 (5'-ACUUGCUAAAAAUGCAGAAUUU-3') (listed as RNA, chemistry not given here)
EGFR mRNA
  expression of EGFR mRNA: decreased in all the cell lines used in the experiment
3′ UTR of EGFR mRNA; HEK cells, co-transfection, 48 hours, Renilla-corrected
  luciferase activity, EGFR 3′UTR vector: each target mRNA was controlled directly by the miRNA
3′ UTR of EGFR mRNA; mutations EGFR 3′UTR 250-256, 2288-2295, and 3476-3482 nt
  luciferase activity, EGFR 3′UTR with mutations in target regions: the expression inhibition phenomenon by the miRNA disappeared
[2]
  inhibition of cell proliferation (relative growth of the cells): excellent effect against the cell lines used
[3]; PC9 cell line
  inhibition of pEGFR and ERK phosphorylation, apoptosis (PARP) by Western blot: inhibit activated EGFR (pEGFR) and inhibit phosphorylation of the downstream signaling factor ERK
[3]; Western blot
  amount of ERK, an activated form of the ERK protein: decreased
[3]; [5]
  expression level of phosphorylated EGFR: also decreased compared to that in the control group
  expression level of the EGFR protein: significantly decreased compared to that in the control group
[3]; other cell lines having erlotinib resistance due to EGFR T790M mutation
  inhibition of pEGFR and ERK phosphorylation, apoptosis (PARP) by Western blot: only miR-544a exhibits this effect
[4]
  number of dead cells (annexin V/PI): significantly higher than that in the cell line treated with the miRNA control
